# In US12428408B2, “Fused heterocyclic mescaline derivatives” (Enveric Biosciences Canada Inc., priority 2022, dated 2025):
# Where two headings read alike, the source gives them in different places.
# Key:
# D2 (h) = biological target: T1, D2 (h) (Homo sapiens, UniProt P14416); assay: Competition assay to measure binding affinity at D2L receptor; conditions: test ligand 10 μM; [3H]methylspiperone 0.3 nM
# T1 construct: host or cells: HEK-293 cells
# alpha2A (h) = biological target: T2, alpha2A (h) (Homo sapiens, UniProt P08913); assay: Competition assay to measure binding affinity at alpha2A receptor; conditions: test ligand 10 μM; [3H]RX 821002 1 nM; read-out: α-2A, percent of control-specific binding
# T2 construct: host or cells: CHO cells
# T2 sequence (P08913 1-465): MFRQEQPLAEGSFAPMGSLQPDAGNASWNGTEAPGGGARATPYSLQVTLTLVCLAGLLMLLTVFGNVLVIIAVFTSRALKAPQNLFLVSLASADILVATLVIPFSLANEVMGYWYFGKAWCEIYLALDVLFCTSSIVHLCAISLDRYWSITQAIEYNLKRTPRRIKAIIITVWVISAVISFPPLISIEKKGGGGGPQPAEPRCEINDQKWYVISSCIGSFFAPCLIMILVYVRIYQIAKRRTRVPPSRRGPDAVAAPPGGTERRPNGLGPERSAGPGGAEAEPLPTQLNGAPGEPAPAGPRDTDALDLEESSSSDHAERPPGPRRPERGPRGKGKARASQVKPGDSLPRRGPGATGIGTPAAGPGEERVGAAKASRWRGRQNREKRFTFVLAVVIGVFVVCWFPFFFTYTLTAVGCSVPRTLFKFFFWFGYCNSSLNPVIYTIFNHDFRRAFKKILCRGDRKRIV
# [1] = biological target: T3, human serotonin transporter (SERT) (Homo sapiens, UniProt P31645); assay: biochemical; format: binding
# T3 construct: purchased PerkinElmer RBHSTM400UA
# 5-HT1D (r) = biological target: T4, 5-HT1D (r) (Rattus norvegicus, UniProt P28565); assay: Competition assay to measure binding affinity at 5-HT1D receptor; conditions: test ligand 10 μM; [3H]serotonin 1 nM
# T4 construct: host or cells: CHO cells
# 5-HT1A receptor = biological target: T5, 5-HT1A receptor (Homo sapiens, UniProt P08908); assay: 5-HT1A receptor radioligand competition assay (SPA); format: binding
# T5 construct: purchased Perkin Elmer 6110501400UA
# T5 sequence (P08908 1-422): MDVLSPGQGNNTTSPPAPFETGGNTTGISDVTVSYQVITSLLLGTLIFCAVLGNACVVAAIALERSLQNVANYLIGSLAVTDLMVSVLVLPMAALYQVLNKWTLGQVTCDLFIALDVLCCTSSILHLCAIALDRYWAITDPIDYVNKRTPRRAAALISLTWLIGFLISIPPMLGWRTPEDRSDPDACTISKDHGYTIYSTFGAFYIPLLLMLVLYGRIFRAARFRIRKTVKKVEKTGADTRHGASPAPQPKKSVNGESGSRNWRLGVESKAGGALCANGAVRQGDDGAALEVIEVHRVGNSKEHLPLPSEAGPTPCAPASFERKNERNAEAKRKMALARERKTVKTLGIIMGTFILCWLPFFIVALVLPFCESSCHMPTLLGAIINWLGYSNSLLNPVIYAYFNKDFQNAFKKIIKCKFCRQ
# D3 (h) = biological target: T6, D3 (h) (Homo sapiens, UniProt P35462); assay: Competition assay to measure binding affinity at D3 receptor; conditions: test ligand 10 μM; [3H]methylspiperone […]
# T6 construct: host or cells: CHO cells
# DAT (h) = biological target: T7, DAT (h) (Homo sapiens, UniProt Q01959); assay: Competition assay to measure binding affinity at dopamine transporter (DAT); conditions: test ligand 10 μM; [3H]BTCP 4 nM
# T7 construct: host or cells: CHO cells
# 5-HT2B (h) = biological target: T8, 5-HT2B (h) (Homo sapiens, UniProt P41595); assay: Competition assay to measure binding affinity at 5-HT2B receptor; conditions: test ligand 10 μM; [3H]mesulergine 2 nM
# T8 construct: host or cells: CHO cells
# MT1 (ML1A) (h) = biological target: T9, MT1 (ML1A) (h) (Homo sapiens, UniProt P48039); assay: Competition assay to measure binding affinity at MT1 receptor; conditions: test ligand 10 μM; [125I]2-iodomelatonin 0.01 nM
# T9 construct: host or cells: CHO cells
# [2] = test system: C57BL/6-Elite male and female mice; assay: Ear-Scratch Response (ESR) assay; format: in vivo, mouse; conditions: i.p. 6 mg/kg, 15-to-30-minute window following drug administration
# NET (h) = biological target: T10, NET (h) (Homo sapiens, UniProt P23975); assay: Competition assay to measure binding affinity at norepinephrine transporter (NET); conditions: test ligand 10 μM; [3H]nisoxetine 1 nM
# T10 construct: host or cells: CHO cells
# 5-HT7 (h) = biological target: T11, 5-HT7 (h) (Homo sapiens, UniProt P34969); assay: Competition assay to measure binding affinity at 5-HT7 receptor; conditions: test ligand 10 μM; [3H]LSD 4 nM
# T11 construct: host or cells: HEK-293 cells
# 5-HT2C (h) = biological target: T12, 5-HT2C (h) (Homo sapiens, UniProt P28335); assay: Competition assay to measure binding affinity at 5-HT2C receptor; conditions: test ligand 10 μM; [125I](±)DOI 0.1 nM
# T12 construct: host or cells: HEK-293 cells
# T12 sequence (P28335 33-458): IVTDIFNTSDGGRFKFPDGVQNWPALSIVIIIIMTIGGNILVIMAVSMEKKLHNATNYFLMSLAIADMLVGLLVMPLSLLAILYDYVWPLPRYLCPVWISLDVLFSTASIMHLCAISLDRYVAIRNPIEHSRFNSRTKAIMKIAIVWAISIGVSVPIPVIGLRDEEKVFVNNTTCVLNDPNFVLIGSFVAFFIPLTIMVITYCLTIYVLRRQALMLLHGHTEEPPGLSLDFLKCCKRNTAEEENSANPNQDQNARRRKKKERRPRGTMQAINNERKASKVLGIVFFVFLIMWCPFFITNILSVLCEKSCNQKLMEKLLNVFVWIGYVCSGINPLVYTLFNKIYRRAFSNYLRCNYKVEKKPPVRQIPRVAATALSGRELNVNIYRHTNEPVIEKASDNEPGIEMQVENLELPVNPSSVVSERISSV
# 5-HT2A receptor = 5-HT2A receptor (Homo sapiens, UniProt P28223); assay: 5-HT2A receptor radioligand competition assay (SPA)
# 5-HT1B (h) = biological target: T13, 5-HT1B (h) (Homo sapiens, UniProt P28222); assay: Competition assay to measure binding affinity at 5-HT1B receptor; conditions: test ligand 10 μM; [3H]GR125743 1 nM
# T13 construct: host or cells: Chem-1 (RBL) cells
# [3] = test system: C57BL/6-Elite male and female mice; assay: Head Twitch Response (HTR) assay; format: in vivo, mouse; conditions: i.p. 6 mg/kg, 15-to-30-minute window following drug administration
# [4] = test system: Human NT2/D1 precursor cells (NT2/D1); assay: Neuroplastogenicity assay using human model (NT2) neurons; format: cell-based; conditions: RA-treated NT2 cells, 1 μM, 48 hours, vs 0.1% DMSO
# Procedure: The compound with formula A(XXXII) was assayed for neuroplastogenic potential using the following procedure. Human NT2/D1 precursor cells (NT2/D1) were purchased from the American Type Culture Collection (ATCC, Manassas, VA, USA). The neuronal differentiation was carried out as previously described (Roloff et al., 2015, PLOS ONE e0118536:1-14; Roloff et al., 2013, BMC Neuroscience 14:141-155) with minor modifications. First, NT2/D1 cells were seeded in T-25 suspension culture flasks (REF #690190, Greiner bio-one, Germany). Each flask contained a minimum of 5×10^6 cells in 10 ml of DMEM/F12 supplemented with 10% fetal bovine serum (FBS), 1% penicillin and streptomycin and 10 μM retinoic acid (RA medium) to start neuronal differentiation. The cells were cultured for 3 days in free floating medium. At the end of the incubation, cells were trypsinized and collected by centrifugation, mechanically dispersed, and counted. Counted cells were seeded on Poly D-Lysine (PDL) coated cover slips (12 mm; diameter round, Fisher Scientific; GG-12-PDL) containing minimum of 0.1×10^5 cells in culture medium without RA. The next day, culture medium was replaced with RA medium containing 2% of FBS. These cells were cultured for 5 days, with a change of RA medium two days later. For the neuronal outgrowth assay, after cells had successfully attached and established under coverslips, the RA medium was replaced with one of the following: (1) test molecules at one of two different concentrations (10 μm or 1 μm); (2) positive control ROCK inhibitor Y-27632, (Dihydrochloride, Sigma-Aldrich); (2) positive control ibuprofen (14883-1G; Sigma-Aldrich), or (4) negative control culture medium containing 2% of FBS. Cells under these conditions were incubated for 48 hours under standard conditions (37° C., 5% CO2) in an incubator prior to the immunofluorescent assay.
# For the immunofluorescent assay, the treated cells housed under coverslips were collected after 48 hours of drug treatments. These coverslips washed with calcium chloride-free and magnesium chloride-free phosphate buffered saline (PBS) pH 7.4 (Gibco, #70011-044) and fixed using paraformaldehyde (PFA) 4% in PBS (#J61899, thermoscientific) for 15 min at room temperature (RT) and washed three times with 0.01% of Triton-X100 in PBS (PBST) to remove remaining PFA and to permeabilize the cells. Unspecific binding sites were blocked with 5% Bovine Serum Albumin (BSA) solution (#9048-46-8, Millipore) in PBST for 60 minutes at RT. Rabbit monoclonal antibody β-III-Tubulin (1:5,000, ab52623, Abcam) was applied overnight (O/N) at 4° C. […] Finally, the immunofluorescence images were detected by using Olympus VS110 slide scanner microscope. […]
# T1 sequence (P14416 whole entry): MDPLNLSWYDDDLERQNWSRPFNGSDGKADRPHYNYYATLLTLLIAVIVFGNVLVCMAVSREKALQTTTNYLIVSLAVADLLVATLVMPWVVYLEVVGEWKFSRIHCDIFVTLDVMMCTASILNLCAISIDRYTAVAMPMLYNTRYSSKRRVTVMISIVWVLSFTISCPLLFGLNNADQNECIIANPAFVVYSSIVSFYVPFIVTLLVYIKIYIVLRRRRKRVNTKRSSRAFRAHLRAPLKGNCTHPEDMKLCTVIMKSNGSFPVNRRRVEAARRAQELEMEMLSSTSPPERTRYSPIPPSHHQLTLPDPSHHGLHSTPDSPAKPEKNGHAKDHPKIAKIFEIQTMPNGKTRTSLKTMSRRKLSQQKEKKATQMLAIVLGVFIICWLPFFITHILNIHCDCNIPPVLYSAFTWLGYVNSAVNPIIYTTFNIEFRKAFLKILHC
# T9 sequence (P48039 whole entry): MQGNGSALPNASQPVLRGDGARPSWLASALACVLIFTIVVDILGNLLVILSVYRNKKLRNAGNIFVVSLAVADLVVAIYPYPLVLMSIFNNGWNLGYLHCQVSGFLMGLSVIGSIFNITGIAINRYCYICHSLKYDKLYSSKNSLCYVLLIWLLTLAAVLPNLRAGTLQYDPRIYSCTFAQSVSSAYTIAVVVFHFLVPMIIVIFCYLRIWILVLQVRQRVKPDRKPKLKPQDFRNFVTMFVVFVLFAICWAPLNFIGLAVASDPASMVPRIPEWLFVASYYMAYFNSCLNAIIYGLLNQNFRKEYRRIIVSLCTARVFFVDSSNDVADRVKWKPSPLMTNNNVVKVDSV
# T10 sequence (P23975 whole entry): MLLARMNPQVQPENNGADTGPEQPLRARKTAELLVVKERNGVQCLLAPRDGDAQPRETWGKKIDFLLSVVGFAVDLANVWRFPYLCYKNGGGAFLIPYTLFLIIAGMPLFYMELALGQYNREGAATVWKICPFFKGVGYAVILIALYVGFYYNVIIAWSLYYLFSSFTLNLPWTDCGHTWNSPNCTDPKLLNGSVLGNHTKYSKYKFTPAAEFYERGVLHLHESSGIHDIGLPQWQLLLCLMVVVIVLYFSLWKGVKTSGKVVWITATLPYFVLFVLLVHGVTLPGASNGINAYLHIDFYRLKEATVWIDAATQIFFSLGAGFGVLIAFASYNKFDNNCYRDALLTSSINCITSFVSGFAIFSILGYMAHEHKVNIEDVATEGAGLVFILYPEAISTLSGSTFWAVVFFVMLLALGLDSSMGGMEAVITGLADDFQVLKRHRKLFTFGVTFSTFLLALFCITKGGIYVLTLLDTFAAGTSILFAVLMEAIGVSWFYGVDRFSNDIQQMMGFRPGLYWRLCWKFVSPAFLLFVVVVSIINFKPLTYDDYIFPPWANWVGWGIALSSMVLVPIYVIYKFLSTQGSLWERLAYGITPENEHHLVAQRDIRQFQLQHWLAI
# Chain of 5-HT2A receptor (P28223 whole entry): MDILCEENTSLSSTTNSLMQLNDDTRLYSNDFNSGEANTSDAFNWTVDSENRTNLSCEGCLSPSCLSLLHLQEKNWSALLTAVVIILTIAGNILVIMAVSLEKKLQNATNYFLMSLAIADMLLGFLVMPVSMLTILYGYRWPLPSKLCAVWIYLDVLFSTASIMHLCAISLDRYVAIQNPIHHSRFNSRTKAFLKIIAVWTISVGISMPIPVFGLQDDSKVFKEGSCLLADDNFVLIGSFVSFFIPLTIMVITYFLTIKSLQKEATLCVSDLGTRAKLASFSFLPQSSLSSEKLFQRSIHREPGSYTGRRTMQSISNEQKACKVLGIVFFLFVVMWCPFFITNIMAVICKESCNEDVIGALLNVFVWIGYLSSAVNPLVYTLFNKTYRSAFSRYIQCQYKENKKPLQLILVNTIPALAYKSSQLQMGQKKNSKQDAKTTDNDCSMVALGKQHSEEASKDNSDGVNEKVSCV
# T11 sequence (P34969 whole entry): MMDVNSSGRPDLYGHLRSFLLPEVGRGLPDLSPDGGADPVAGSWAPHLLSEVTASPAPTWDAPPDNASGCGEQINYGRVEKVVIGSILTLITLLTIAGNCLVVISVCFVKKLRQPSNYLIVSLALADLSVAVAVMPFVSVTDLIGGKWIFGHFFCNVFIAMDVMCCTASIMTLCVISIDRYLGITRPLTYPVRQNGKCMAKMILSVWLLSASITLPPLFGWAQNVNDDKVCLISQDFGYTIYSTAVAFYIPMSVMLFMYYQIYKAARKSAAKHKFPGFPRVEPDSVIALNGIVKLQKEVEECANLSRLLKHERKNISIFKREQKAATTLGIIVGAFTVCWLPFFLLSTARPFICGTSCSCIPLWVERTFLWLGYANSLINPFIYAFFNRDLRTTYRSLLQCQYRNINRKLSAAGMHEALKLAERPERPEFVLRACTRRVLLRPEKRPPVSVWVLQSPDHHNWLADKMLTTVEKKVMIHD
# T3 sequence (P31645 whole entry): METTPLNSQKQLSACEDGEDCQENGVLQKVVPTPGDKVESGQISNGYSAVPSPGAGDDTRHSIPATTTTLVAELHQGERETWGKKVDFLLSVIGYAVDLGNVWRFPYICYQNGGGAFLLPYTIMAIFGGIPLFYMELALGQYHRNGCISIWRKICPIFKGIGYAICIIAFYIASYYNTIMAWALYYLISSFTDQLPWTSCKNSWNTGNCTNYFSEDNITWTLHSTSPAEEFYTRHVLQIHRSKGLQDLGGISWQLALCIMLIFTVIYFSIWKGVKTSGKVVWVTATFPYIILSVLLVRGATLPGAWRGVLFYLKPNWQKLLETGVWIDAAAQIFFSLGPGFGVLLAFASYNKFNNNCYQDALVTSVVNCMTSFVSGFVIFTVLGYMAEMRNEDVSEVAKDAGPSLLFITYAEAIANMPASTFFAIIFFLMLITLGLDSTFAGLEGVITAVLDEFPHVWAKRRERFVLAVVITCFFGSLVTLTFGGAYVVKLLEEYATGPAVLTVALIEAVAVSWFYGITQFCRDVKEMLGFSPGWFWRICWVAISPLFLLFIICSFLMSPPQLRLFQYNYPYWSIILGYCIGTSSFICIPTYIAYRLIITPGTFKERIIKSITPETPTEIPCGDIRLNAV
# T13 sequence (P28222 whole entry): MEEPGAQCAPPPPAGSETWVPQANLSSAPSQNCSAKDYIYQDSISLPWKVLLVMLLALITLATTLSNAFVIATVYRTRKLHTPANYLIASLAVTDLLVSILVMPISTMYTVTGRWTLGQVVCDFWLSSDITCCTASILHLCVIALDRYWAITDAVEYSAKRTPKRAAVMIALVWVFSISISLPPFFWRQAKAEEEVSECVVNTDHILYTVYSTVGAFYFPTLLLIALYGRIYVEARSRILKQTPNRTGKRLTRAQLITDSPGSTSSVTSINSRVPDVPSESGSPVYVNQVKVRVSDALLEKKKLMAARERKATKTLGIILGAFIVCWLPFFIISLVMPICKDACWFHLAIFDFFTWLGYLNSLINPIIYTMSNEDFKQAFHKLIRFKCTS
# T4 sequence (P28565 whole entry): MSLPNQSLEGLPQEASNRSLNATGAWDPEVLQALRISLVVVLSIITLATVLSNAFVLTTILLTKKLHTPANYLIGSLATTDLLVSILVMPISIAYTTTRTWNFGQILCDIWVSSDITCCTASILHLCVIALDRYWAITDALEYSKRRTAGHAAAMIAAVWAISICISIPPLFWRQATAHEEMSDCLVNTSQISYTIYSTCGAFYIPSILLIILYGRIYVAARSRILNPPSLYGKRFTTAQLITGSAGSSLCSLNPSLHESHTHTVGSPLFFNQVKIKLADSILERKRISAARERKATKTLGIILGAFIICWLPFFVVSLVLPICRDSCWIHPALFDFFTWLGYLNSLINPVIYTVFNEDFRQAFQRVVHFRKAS
# T8 sequence (P41595 whole entry): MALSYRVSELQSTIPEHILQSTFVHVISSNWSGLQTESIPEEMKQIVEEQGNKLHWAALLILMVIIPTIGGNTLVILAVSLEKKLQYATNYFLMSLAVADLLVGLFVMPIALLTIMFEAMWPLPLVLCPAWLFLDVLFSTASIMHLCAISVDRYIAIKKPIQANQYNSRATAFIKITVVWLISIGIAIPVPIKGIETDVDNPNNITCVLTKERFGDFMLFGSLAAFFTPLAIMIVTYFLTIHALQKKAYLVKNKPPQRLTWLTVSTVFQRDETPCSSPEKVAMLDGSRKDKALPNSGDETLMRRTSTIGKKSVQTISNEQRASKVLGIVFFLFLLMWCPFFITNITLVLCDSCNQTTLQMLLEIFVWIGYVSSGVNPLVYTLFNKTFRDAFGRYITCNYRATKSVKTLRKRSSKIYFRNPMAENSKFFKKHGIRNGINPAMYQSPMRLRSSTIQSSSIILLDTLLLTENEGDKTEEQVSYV
# T6 sequence (P35462 whole entry): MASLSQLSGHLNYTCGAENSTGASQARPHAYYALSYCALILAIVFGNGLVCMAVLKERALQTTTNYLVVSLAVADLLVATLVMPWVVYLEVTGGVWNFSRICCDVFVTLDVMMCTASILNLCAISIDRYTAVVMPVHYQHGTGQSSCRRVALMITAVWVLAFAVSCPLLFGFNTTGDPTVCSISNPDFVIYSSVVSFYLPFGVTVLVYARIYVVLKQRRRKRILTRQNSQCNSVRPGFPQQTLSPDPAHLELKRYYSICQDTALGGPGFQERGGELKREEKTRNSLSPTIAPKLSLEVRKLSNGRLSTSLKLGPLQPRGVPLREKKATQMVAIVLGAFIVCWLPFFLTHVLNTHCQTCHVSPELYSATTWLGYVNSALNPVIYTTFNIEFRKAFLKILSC
SMILES,"D2, percent of control-specific binding (D2 (h)) [%]",inhibition at 10 µM (alpha2A (h)) [%],Ki [1] [µM],"HT1D, percent of control-specific binding (5-HT1D (r)) [%]",Ki (5-HT1A receptor) [µM],"D3, percent of control-specific binding (D3 (h)) [%]","DAT, percent of control-specific binding (DAT (h)) [%]","HT2B, percent of control-specific binding (5-HT2B (h)) [%]","MT1, percent of control-specific binding (MT1 (ML1A) (h)) [%]",incidences of ESR relative to vehicle-treated control mice [2],"NET, percent of control-specific binding (NET (h)) [%]","HT7, percent of control-specific binding (5-HT7 (h)) [%]","HT2C, percent of control-specific binding (5-HT2C (h)) [%]",Ki (5-HT2A receptor) [µM],"HT1B, percent of control-specific binding (5-HT1B (h)) [%]",incidences of HTR relative to vehicle-treated control mice [3],"Ki (5-HT1A receptor; competition with 0.5 nM 8-hydroxy-DPAT [3H], test compound 3 nM to 1 mM, read-out: 5-HT1A, Ki) [µM]",neurite outgrowth (β-III-tubulin immunofluorescence) compared to negative control [4]
CC(Cc1ccc2c(c1)OCO2)NC1CCC1 (stereo not drawn) [A(I)],15,35,1.1,0,20.8,24,98,37,2,Elevated incidences of ESR,62,5,28,517,0,Elevated incidences of HTR,–,–
c1cc2c(cc1CCN1CCOCC1)OCO2 [A(VII)],3,5,29.9,0,–,4,18,12,0,Elevated incidences of ESR,0,14,4,6,0,Elevated incidences of HTR,24.1,–
CC(Cc1ccc2c(c1)OCO2)NCCc1c[nH]c2ccccc12 (stereo not drawn) [A(XXXI)],–,–,–,–,–,–,–,–,–,–,–,–,–,–,–,–,–,strong signs of neurite outgrowth
